The values that follow come from patent US20100286280A1, “INHIBITORS OF EPPIN/SEMENOGELIN BINDING AS MALE CONTRACEPTIVES” (The University of North Carolina at Chapel Hill, priority 2007, published 2010).

The target in experiment [1] is T1, recombinant Eppin binding to recombinant semenogelin (Homo sapiens, UniProt O95925).
T1 construct: made in house; host or cells: E. coli strain M15 [pREP-4]
The experiment is described as follows: Eppin-semenogelin in vitro binding assay (96-well ELISA format, absorption at 450 nm). The settings on record: Eppin preincubated with compound dilutions starting at 40 μg/ml; OD 450 nm (FIG. 4). The protocol:
In one embodiment, His-tagged recombinant semenogelin is bound to the individual wells of the plate, FLAG-tagged recombinant Eppin is bound to the semenogelin. The recombinant Eppin and recombinant semenogelin will form a complex. Compounds are then individually added to the wells of the plate and allowed to interfere with the Eppin-semenogelin complex formation. An anti-FLAG antibody (such as the M2 antibody sold by Sigma-Aldrich) is then added to the wells of the plate. The inhibition of the binding of Eppin to semenogelin is determined by looking for changes in Eppin-semenogelin binding when the anti-FLAG antibody (such as those used in commercially-available ELISA assays) is added. One can detect the binding of the anti-FLAG antibody to the FLAG tagged Eppin, for example, by looking at the absorption at 450 nm. In another embodiment, compounds are incubated with FLAG-tagged recombinant Eppin before being added to Sg. The anti-FLAG antibody is added after the Eppin-compound mixtures are added to the wells of the plate.
Recombinant Eppin and semenogelin are as described in Wang et al., Biology of Reproduction, 72:1064-1070 (2005). The recombinant Eppin used in the assays described herein has been tagged with a FLAG tag. The recombinant semenogelin is a His-tagged recombinant protein of the fragment of semenogelin starting with amino acid 164 and continuing to amino acid 283. […]
A general note: In an ELISA, binding on a coated surface is turned into a signal by an enzyme label.

The subject of another experiment is human spermatozoa. In words: Human sperm motility assay with Compound A4. Format: cell-based. The source says: Human spermatozoa were obtained from the UNC-Hospital clinic, washed and used for testing in a motility assay. Compound A4 reduced the total number of motile sperm in an ejaculate to <10% within one hour. The data are shown below in FIGS. 5 and 6, and in Tables 2 and 3.

“Also recorded” adds a separate entry of the source.

T1 sequence (O95925 22-133): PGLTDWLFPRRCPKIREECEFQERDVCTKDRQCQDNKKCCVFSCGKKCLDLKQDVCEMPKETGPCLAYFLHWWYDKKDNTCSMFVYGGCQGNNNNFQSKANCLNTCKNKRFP

For the compound `Cl.NC(=O)CNCC(N)=O` [Compound A4], the “inhibition of Eppin-semenogelin binding” value in experiment [1] is reported as “effective at inhibiting this binding in a dose dependent manner; also recorded: inhibited Eppin-semenogelin binding in a dose dependent manner”. For the same compound, in the experiment on human spermatozoa (Table 2, swim up + A4 + 1 hr), the Velocity worked out at 15 μm/sec and the total distance was found to be 222 μm. Also, in the experiment on human spermatozoa (Table 3, swim up + 1 hour), the “% Motility” value came to 7%, the Average velocity stood at 14.9 μm/sec, the Distance is recorded as 222 μm and the Straight distance is reported as 48.7 μm. Further, in the experiment with human spermatozoa (human spermatozoa), the “inhibition of sperm motility (in words)” value is “inhibits their motility, significantly reducing their forward velocity and distance traveled; also recorded: effective at inhibiting sperm motility”. Moreover, in the experiment with human spermatozoa (within one hour), the “total number of motile sperm in an ejaculate” value is listed as under 10%.
